Test results: patent publication US20030026766A1 (priority 2000, published 2003)

Target: T1, glucocorticoid receptor (Homo sapiens, UniProt P04150)
T1 sequence (P04150 1-777): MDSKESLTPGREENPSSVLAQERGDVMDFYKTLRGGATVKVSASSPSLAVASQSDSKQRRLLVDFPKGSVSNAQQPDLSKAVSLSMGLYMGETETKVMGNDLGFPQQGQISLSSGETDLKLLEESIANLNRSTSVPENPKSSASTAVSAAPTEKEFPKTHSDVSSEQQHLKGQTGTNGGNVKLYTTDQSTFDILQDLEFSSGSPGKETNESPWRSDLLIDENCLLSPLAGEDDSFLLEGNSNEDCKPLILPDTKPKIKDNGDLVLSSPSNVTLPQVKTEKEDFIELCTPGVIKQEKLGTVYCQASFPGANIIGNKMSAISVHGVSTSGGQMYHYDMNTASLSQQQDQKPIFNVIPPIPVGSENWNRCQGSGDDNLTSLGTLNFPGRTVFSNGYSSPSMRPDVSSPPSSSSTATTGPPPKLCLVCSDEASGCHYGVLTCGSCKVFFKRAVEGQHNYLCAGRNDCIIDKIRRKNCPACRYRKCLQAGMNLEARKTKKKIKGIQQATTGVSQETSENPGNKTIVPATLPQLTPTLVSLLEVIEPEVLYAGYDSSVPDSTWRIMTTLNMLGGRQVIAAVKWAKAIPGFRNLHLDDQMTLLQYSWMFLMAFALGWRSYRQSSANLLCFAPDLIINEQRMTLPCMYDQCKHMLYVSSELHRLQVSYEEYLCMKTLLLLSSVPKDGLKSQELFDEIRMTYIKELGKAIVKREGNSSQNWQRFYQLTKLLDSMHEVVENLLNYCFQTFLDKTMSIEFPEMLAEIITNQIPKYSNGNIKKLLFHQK
Experiment: Western Blot analysis of glucocorticoid receptor translocation into the nucleus in U937 cells
Details: nuclear extract, GR band at approximately 94 kDa by densitometry, control = 100, proportional to increase in GR translocation into the nucleus

% Change in Band Density: 183 ± 12%
SMILES: OCc1cc(C(O)CNCCCCCCOCCCCc2ccccc2)ccc1O (stereo not shown) [Salmeterol]
